From paper PMC6556873, “Rapid Covalent-Probe Discovery by Electrophile-Fragment Screening” (Journal of the American Chemical Society, 2019)
Like-named read-outs stand apart in the source and are kept apart here.

Assays:
[1] = in vitro; design: species or system HB2, CCD841; settings: human, hek293 cells
[2] = biological target: T1, NUDT7 (Homo sapiens, UniProt P0C024); assay: intact protein LC/MS labeling; format: binding; settings: covalent; 24 h, 4 °C, 2 μM protein, pools of five, pH 7.5
T1 construct: residues 14-235, E. coli, pNIC28-Bsa4, N-terminal His6 tag removed by TEV, construct 26672 Da
T1 sequence (P0C024 14-235): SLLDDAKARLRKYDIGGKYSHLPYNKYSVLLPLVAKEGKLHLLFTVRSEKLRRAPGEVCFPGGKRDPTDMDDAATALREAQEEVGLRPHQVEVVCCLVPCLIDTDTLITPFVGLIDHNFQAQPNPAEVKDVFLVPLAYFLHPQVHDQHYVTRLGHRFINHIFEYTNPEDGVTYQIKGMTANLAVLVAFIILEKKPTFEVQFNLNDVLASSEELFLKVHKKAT

[3] = in vitro; design: species or system CCD841, HEK293; settings: human, hb2 cells, read-out: HB-2 Cells Viability (%)
[4] = biological target: T2, OTUB2 (OTUB2A) (Homo sapiens, UniProt Q96DC9); design: Intact protein LC/MS covalent labelling, fragments in pools of five, 200 uM each, 4 °C; settings: 24 h, 4 °C, pool of five; 200 µM; covalent
T2 construct: full length residues 1-234, E. coli BL21(DE3)-R3, His tag removed by TEV, construct 27312 Da
T2 sequence (Q96DC9 1-234): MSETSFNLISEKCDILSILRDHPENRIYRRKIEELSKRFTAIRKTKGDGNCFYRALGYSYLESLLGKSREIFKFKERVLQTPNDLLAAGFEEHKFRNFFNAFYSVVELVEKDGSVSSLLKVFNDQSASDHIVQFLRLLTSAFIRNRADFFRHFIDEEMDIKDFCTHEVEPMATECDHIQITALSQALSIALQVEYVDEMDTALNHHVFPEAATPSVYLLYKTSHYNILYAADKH

[5] = biological target: T3, PCAF (Homo sapiens, UniProt Q92831); design: Intact protein LC/MS covalent labelling, fragments in pools of five, 200 uM each, 4 °C; settings: 24 h, 4 °C, pool of five; 200 µM; covalent
T3 construct: gene KAT2B
T3 sequence (Q92831 whole entry, the tested form may be a part): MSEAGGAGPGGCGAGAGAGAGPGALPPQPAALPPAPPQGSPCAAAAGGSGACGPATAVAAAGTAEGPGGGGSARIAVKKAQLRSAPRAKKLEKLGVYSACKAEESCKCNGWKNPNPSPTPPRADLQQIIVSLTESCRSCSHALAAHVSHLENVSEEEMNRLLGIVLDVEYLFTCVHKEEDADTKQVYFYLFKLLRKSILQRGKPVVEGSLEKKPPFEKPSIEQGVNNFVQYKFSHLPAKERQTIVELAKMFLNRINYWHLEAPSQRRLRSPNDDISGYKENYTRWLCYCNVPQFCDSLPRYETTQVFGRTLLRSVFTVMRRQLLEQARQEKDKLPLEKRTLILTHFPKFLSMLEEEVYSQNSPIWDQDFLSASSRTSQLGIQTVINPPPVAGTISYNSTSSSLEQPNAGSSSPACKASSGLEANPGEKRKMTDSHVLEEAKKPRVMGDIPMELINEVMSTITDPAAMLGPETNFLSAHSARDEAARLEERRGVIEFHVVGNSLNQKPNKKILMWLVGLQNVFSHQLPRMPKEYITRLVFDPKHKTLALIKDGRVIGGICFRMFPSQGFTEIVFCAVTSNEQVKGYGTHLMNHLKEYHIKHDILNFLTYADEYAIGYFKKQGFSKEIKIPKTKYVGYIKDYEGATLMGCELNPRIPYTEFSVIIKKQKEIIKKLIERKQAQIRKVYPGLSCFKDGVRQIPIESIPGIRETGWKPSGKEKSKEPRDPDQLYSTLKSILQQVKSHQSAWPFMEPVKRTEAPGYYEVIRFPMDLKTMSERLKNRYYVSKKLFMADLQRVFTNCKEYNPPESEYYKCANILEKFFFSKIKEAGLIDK

[6] = biological target: T4, BSA (Bos taurus, UniProt P02769); design: Intact protein LC/MS covalent labelling, fragments in pools of five, 200 uM each, 4 °C; settings: 24 h, 4 °C, pool of five; 200 µM; covalent
T4 construct: gene ALB
T4 sequence (P02769 whole entry, the tested form may be a part): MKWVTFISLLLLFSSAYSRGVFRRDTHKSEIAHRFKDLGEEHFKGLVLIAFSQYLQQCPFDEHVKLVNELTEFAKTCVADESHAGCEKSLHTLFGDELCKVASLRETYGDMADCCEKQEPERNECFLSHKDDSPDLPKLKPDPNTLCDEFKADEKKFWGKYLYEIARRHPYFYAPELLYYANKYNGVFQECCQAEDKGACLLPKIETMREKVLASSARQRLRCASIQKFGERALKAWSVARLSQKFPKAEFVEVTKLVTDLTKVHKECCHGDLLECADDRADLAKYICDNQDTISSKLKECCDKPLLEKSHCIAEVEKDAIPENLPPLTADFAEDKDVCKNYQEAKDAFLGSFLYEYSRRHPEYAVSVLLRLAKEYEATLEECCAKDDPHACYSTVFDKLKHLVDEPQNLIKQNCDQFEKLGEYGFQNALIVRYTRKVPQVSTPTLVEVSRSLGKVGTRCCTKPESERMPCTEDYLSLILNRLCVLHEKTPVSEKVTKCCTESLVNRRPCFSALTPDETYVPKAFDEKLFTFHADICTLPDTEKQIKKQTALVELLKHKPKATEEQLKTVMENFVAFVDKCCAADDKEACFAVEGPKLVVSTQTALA

[7] = biological target: T1, NUDT7; design: Intact protein LC/MS covalent labelling, fragments in pools of five, 200 uM each, 4 °C; settings: 24 h, 4 °C, pool of five; 200 µM; covalent
[8] = in vitro; design: species or system HB2, HEK293; settings: human, ccd841 cells
[9] = biological target: T5, NNMT (hNNMT) (Homo sapiens, UniProt P40261); design: Intact protein LC/MS covalent labelling, fragments in pools of five, 200 uM each, 4 °C; settings: 24 h, 4 °C, pool of five; 200 µM; covalent
T5 construct: wild type, N-terminal His6 tag kept (no cleavage described), E. coli, construct 31248 Da
T5 sequence (P40261 1-264): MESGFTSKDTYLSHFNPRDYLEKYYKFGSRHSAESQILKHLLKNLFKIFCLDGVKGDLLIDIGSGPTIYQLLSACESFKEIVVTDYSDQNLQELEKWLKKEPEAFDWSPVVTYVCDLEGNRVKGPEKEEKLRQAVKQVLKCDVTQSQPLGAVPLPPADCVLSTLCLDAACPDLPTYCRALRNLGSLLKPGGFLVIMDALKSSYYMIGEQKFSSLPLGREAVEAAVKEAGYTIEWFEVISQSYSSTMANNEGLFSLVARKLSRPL

SMILES | viability at 48 h, 10 µM [1] [%] | % labeling at 200 μM [2] [%] | viability at 48 h, 10 µM [3] [%] | OTUB2 [4] | PCAF [5] | BSA [6] | NUDT7 [7] | viability at 48 h, 10 µM [8] [%] | NNMT [9]
O=C(CCl)N1CCCC1c1ccc2c(c1)OCCO2 (stereo not drawn) [PCM-0102298] | 4.5 | 100 | 5.3 | 0 | 0 | 0 | 1 | 21.6 | 
COc1ccc2nc(NC(=O)CCl)sc2c1 [PCM-0102330] | 39.7 |  | 32.7 | 0 | 0 | 0 | 1 | 44.6 | 0.71
COC(=O)c1cc(NC(=O)CCl)cn1C [PCM-0102545] | 12.7 |  | 54.5 | 0.33 | 0 | 0 | 0 | 65.4 | 0.16
O=C(CCl)Nc1cccc(C(F)(F)F)c1 [PCM-0102290] | 2.3 |  | 9.5 | 0.26 | 0 | 0 | 0.12 | 40 | 0.77
O=C(CCl)Nc1nnn[nH]1 [PCM-0102778] | 120 |  | 102 | 0.3 | 0 | 0 | 0 | 102 | 0
CC(C)(C)CCNC(=O)CCl [PCM-0102853] | 102 |  | 99.7 | 0 | 0 | 0 | 0 | 91.6 | 0.24
O=C(CCl)NC(=O)NCC1COc2ccccc2O1 (stereo not drawn) [PCM-0102092] | 7.6 |  | 49 | 0 | 0 | 0 | 0 | 33.4 | 0
O=C(CCl)NC1CCCC1 [PCM-0102250] | 58.7 |  | 71.9 | 0 | 0 | 0 | 0 | 69.1 | 0
C=CC(=O)Nc1cc(F)ccc1C [PCM-0102917] | 76.3 |  | 103 | 0 | 0 | 0 | 0 | 106 | 0
O=C(CCl)NNC(=O)C1CC1 [PCM-0102776] | 90.2 |  | 93.1 | 0.23 | 0 | 0 | 0 | 88.4 | 0
CC(NC(=O)NC(=O)CCl)C1CC2CCC1C2 (stereo not drawn) [PCM-0102997] | 91.4 |  | 98.1 | 0.05 | 0 | 0 | 0 | 116 | 0.23
CC(=O)N1CCC(NC(=O)CCl)CC1 [PCM-0102932] | 88 |  | 95.1 | 0.07 | 0 | 0 | 0 | 85.9 | 0
CN(Cc1ccccc1)C(=O)CCl [PCM-0102984] | 55.2 |  | 78.6 | 0 | 0 | 0 | 0.11 | 91.6 | 0
C=CC(=O)N1CCN(C(=O)Nc2ccc(C)c(Cl)c2)CC1 [PCM-0102604] | 91.5 |  | 74.6 | 0 | 0 | 0 | 0 | 122 | 0
CC(NC(=O)CCl)C(=O)N(C)C (stereo not drawn) [PCM-0102754] | 83.7 |  | 96 | 0 | 0 | 0 | 0 | 101 | 0
C=CC(=O)NC(C)C(=O)N1CCc2ccccc21 (stereo not drawn) [PCM-0102486] | 99 |  | 99.8 | 0 | 0 | 0 | 0 | 89.6 | 0
COC(=O)NC(=O)CCl [PCM-0102791] | 94.3 |  | 106 | 0.09 | 0 | 0 | 0 | 123 | 0
CC(C)(C)NC(=O)CN1CCN(C(=O)CCl)CC1.Cl [PCM-0102302] | 84.4 |  | 97 | 0.13 | 0 | 0 | 0.08 | 98.9 | 0.24
CN(CCC#N)C(=O)CCl [PCM-0102712] | 80.3 |  | 89.4 | 0 | 0 | 0 | 0 | 79.6 | 0.32
O=C(CCl)Nc1ccccc1 [PCM-0102658] | 56.1 |  | 72 | 0 | 0 | 0 | 0 | 67 | 0
C=CC(=O)N1CC2(CCCC2)c2cc3c(cc2C1C)OCCO3 (stereo not drawn) [PCM-0102560] | 116 |  | 102 | 0 | 0 | 0 | 0 | 110 | 0.19
O=C(CCl)N(c1ccccc1)C1C=CS(=O)(=O)C1 (stereo not drawn) [PCM-0102372] | 11.2 |  | 24.1 | 0 | 0 | 0 | 0.28 | 31 | 0.28
CCOC(=O)N1CCN(C(=O)CCl)CC1 [PCM-0102861] | 82.6 |  | 114 | 0 | 0 | 0 | 0 | 109 | 0
Cc1cccc(CN2CCN(C(=O)CCl)CC2)c1 [PCM-0102340] | 15.3 |  | 19.6 | 0.17 | 0 | 0 | 0 | 42.4 | 0.26
O=C(CCl)N1CCCCC1 [PCM-0102514] | 90.8 |  | 92.8 | 0 | 0 | 0 | 0 | 88.1 | 0
O=C(CCl)N1CCN(c2ccccc2Cl)CC1 [PCM-0102297] | 3.9 |  | 2.3 | 0 | 0 | 0 | 0.35 | 52 | 0.15
O=C(CCl)N1CCN(Cc2ccc3c(c2)OCCO3)CC1 [PCM-0102386] | 39.1 |  | 42.2 | 0 | 0 | 0 | 0 | 75.9 | 0
